What was measured:
[1] = system: tPA-deficient fibroblasts; assay: WST-1 growth assay of primary fibroblasts in serum-free medium; type: cell-based, mouse; details: 50 ng/ml added to serum-free culture medium, 24 hours
Method: It was observed that primary fibroblasts derived from tPA-deficient mice grew more slowly in culture than fibroblasts derived from wild-type animals, raising the possibility that activation of latent PDGF-CC by tPA generated autocrine and paracrine growth stimulatory loops for primary fibroblasts in culture. To analyze this effect, isolated wild-type and tPA-deficient fibroblasts were serum-starved overnight, and the growth of the cells during the next 24 hours was monitored using an enzyme-based viability assay (see Example 8, Materials and Methods).
(§1) To monitor cell growth, both the cell proliferation reagent WST-1 (Roche) and BrdU (Sigma) were used. A total of 0.4×10^4 (WST-1) or 1×10^4 (BrdU) wild-type and tPA-deficient fibroblasts were seeded in triplicate-hexaplicate, and after attachment they were serum-starved overnight. Serum-starved cells were counted (WST-1 seeding control) and alternatively incubated for 24 hours in serum-free medium supplemented with 1 mg/ml BSA, and 50 μM BrdU in the BrdU experiment, in the absence or presence of 50 ng/ml activated PDGF-CC or tPA protein (#116, American Diagnostica Inc.). Upon counting, WST-1 reagent was added and measured according to the manufacturer's protocol using an ELISA reader. […] Quantification of the BrdU-positive cells was performed by counting all cells along the vertical and horizontal diameters of all wells.

latent PDGF-DD = latent PDGF-DD (Homo sapiens, UniProt Q9GZP0); assay: Cotransfection assay in COS-1 cells: protease plus full-length PDGF-D; type: cell-based; design: cotransfected with full-length PDGF-C (Li et al, 2000), full-length PDGF-D (Bergsten et al, 2001); expressed in transfected cells; host or cells: COS-1 cells; details: COS-1 conditioned medium, immunoblot
Source text: A cotransfection assay was established to identify serine proteases able to cleave and activate latent PDGF-CC. Expression plasmids encoding the relevant enzymes and full-length PDGF-C were cotransfected into COS-1 cells, and aliquots of the conditioned media from the transfectants were subjected to SDS-PAGE and immunoblotting using antibodies to the growth factor domain of PDGF-C. […] As a specificity control, the ability of tPA and NT to use full-length PDGF-DD as the substrate in the cotransfection assay was analysed. […] One difference in the latter results, as compared with the results from the cotransfection assay, was that purified tPA generated a second intermediate species of 32 kDa using latent PDGF-CC as the substrate. […]
To test the endogenous expression of PDGF-CC, subconfluent AG1523 cells and primary fibroblast cultures were cultured in serum-free DMEM overnight. […] In the case of the primary cultures, total protein concentration was measured and normalized (Bradford, 1976). […] PDGF-C and PDGF-D were detected by immunoblotting using affinity-purified polyclonal rabbit antibodies against PDGF-C (Li et al, 2000) and PDGF-D (Bergsten et al, 2001), respectively. The His6-tagged proteins were detected using an anti-His monoclonal antibody (C-terminal, Invitrogen). tPA was detected using sheep polyclonal antibodies against human tPA (ab9030, Abcam).

[2] = system: wild-type and tPA-deficient fibroblasts; assay: BrdU incorporation in primary fibroblasts; type: cell-based, mouse; details: 50 ng/ml, 24 hours BrdU labeling
Method: Cell nuclei were visualized with 4′,6-diamidine-2′-phenylindole dihydrochloride (DAPI), and BrdU-labeled cells were determined by immunofluorescence using antibodies to BrdU (FIG. 7B).
as §1, with “reader. In the BrdU experiment, the cells were fixed in 4% paraformaldehyde in PBS for 30 min at room temperature and the DNA was denatured in 2M HCl for 20 min at room temperature and then blocked in 0.5% BSA, 0.5% Tween, and 10% goat serum in PBS.” for “reader.”

tPA: tissue plasminogen activator, secreted serine protease; expressed, purified from human melanoma cells or recombinant
rescue of growth of tPA-deficient fibroblasts [1]: allowed the cells to grow similar to the wild-type fibroblasts | cleavage and activation of latent PDGF-DD by the coexpressed protease (latent PDGF-DD): neither of the two enzymes was able to cleave and activate latent PDGF-DD | BrdU incorporation in tPA-deficient cells ([2]; serum-starved tPA-deficient fibroblasts): strongly stimulated BrdU incorporation in the tPA-deficient cells | BrdU incorporation in wild-type cells ([2]; serum-starved wild-type fibroblasts): had less effect on wild-type cells
